Laboratory results reported in US10683273B2, “Compounds as DNA probes, methods and applications thereof” (JAWAHARLAL NEHRU CENTRE FOR ADVANCED SCIENTIFIC RESEARCH, priority 2015, dated 2020).

Assays:
RNA = test: Fluorescence response with RNA; assay type: binding; conditions: QCy-DT 2 μM, RNA 4 μM, Tris-HCl
Method: All the chemicals, reagents, single-stranded oligos (dA20, dT20, dG20, dC20), self-complementary oligos {d(ATAT)5, (D1)mix, Drew-AT, Calf-Thymus DNA (CT-DNA), (DM1, DM2, DM3, DM4, DM5, DM6 and DM7)}, RNA, were purchased from Sigma-Aldrich. ^1H and ^13C NMR spectra were recorded on a Bruker AV-400 MHz spectrometer with chemical shifts reported as parts per million (ppm) (in DMSO-d6, tetramethylsilane as an internal standard) at 20° C. UV-vis absorption and emission spectra were measured in quartz cuvettes of 1 cm path length. High resolution mass spectra (HRMS) were obtained on Agilent Technologies 6538 UHD Accurate-Mass Q-TOF LC/MS spectrometer. All biophysical studies (UV-vis, fluorescence and Cirular dichroism) are carried out at the concentration 0-5 μM of probe, volume=500 μL, temperature=25° C. and time of incubation=2 minutes. […]
The UV-vis absorption and emission spectra are recorded on Agilent Technologies Cary series UV-vis-NIR absorbance and Cary eclipse fluorescence spectrophotometers, respectively. […] Absorption is monitored at 260 nm with regular 5° C. intervals. Melting temperatures (Tm) of DNA samples are calculated from the first derivatives of the absorption vs. temperature curves (thermal denaturation or melting curves) obtained by monitoring at 260 nm. […]

(A-T)20 = test: UV-melting (UV-Tm) of DNA duplex with probe; assay type: binding; conditions: (A-T)20 with QCy-DT vs duplex alone
Method: (§1) The UV-vis absorption and emission spectra are recorded on Agilent Technologies Cary series UV-vis-NIR absorbance and Cary eclipse fluorescence spectrophotometers, respectively. Thermal denaturation (UV-melting) studies are carried out on Cary 5000 UV-vis-NIR spectrophotometer equipped with Cary temperature controller in the range of 10° C. to 90° C. with a ramp rate of 1° C./min. The variable temperature/wavelength mode is used. Absorption is monitored at 260 nm with regular 5° C. intervals. Melting temperatures (Tm) of DNA samples are calculated from the first derivatives of the absorption vs. temperature curves (thermal denaturation or melting curves) obtained by monitoring at 260 nm.
(§2) To understand the effect of QCy-DT binding to DNA on the thermal stability of DNA, temperature-dependent UV-melting studies (UV-Tm) is performed on different [QCy-DT+DNA] complexes. […] Therefore, the binding affinity, fluorescence quantum yield, and UV-Tm data validated the preferential recognition of AT-rich DNA by QCy-DT probe compared to GC-rich DNA.

(D1)mix = test: UV-melting (UV-Tm) of DNA duplex with probe; assay type: binding; conditions: (D1)mix with QCy-DT vs duplex alone
Method: as §1, §2

Drew AT = test: UV-melting (UV-Tm) of DNA duplex with probe; assay type: binding; conditions: Drew AT with QCy-DT vs duplex alone
Method: as §1, §2

d(ATAT)5 = test: UV-melting (UV-Tm) of DNA duplex with probe; assay type: binding; conditions: d(ATAT)5 with QCy-DT vs duplex alone
Method: as §1, §2

MCF-7 cells [1] = test: Fluorescence study in live cells; assay type: cell-based; conditions: live MCF-7 cells, 0.5 and 1 μM, 60 min
Method: MCF-7 cells are propagated on 20 mm cover slips in a 6-well plate in DMEM medium supplemented with 10% fetal bovine serum at about 37° C. in a humidified atmosphere containing 5% CO2 till 80% confluency is achieved. Cells are incubated for about 60 min with probe QCy-DT (resuspended in Mili-Q water) at various concentrations (0.5 μM and 1 μM) in a humidified CO2 incubator at about 37° C. Milli-Q water is used as a vehicle control. Following the treatment, fluorescence microscopy is performed using Carl Zeiss AXIO Imager Z1 and the software used for image capturing is AxioVision Rel. 4.8.
In order to check its permeability, cellular uptake studies are carried out in live and fixed conditions of MCF-7 and HeLa cells, respectively. First, MCF-7 cells are incubated with probe QCy-DT (0.5 and 1 μM) without fixing, and live cell imaging is conducted using Carl Zeiss fluorescence microscope as described above. […] Next, HeLa cells are fixed and incubated with QCy-DT (0.5 and 1 μM) along with Hoechst as the control nuclear staining dye. […] Therefore, staining results obtained with live and fixed cells confirmed high cell permeability, efficiency (low staining concentration of 1 μM), and preferential targeting of cell nuclear DNA.

MCF-7 cells [2] = test: Cell viability assay (MTT); assay type: cell-based; conditions: MCF-7, up to 8 μM, about 72 hours
Method: MCF-7 cells (4×10^3 cells/well) are seeded in 96-well plate (flat bottom) and cultured for 12 hours. Following this, cells are treated with […] of probe QCy-DT respectively for about 72 hours and further incubated in a humidified CO2 incubator at about 37° C. 20 μL of MTT (5 mg/mL in PBS) solution is added to each well and incubated for about 4 hours at about 37° C. in the CO2 incubator. DMSO (200 μL) is then added to each well. After about 1 hour, absorbance is taken in ELISA microplate reader at 570 nm wavelength.
Following formula is applied for the calculation of percentage of cell viability (CV): CV=(absorbance of the experimental samples/absorbance of the control sample)×100
The data is normalized with control and plotted with mean and standard error.

C[n+]1c(/C=C/c2ccc(O)c(/C=C/c3sc4ccccc4[n+]3C)c2)sc2ccccc21 [QCy-DT, quinone cyanine-dithiazole]
fluorescence response (RNA): very weak response
ΔTm ((A-T)20): 6.2 °C
ΔTm ((D1)mix): 2.5 °C
ΔTm (Drew AT): 4.2 °C
ΔTm (d(ATAT)5): 3.5 °C
cellular uptake / nuclear staining (MCF-7 cells [1]): selective staining of the cell nucleus
cell viability (MCF-7 cells [2]): > 76%
